In US12239627B2, “Method of treating conditions related to the PGI2 receptor” (Arena Pharmaceuticals, Inc., priority 2014, dated 2025):

Assay: Phase 1 multiple ascending dose, dose titration study with healthy subjects (adverse events, tolerated dose)
Format: in vivo, human
Protocol: This study was a phase 1, randomized, double-blind, placebo-controlled, multiple-dose, dose titration study. A titration interval of 6 days was employed, with each dose being administered for at least 5 days. One goal was to determine the effect of dose titration on adverse effects.
In each of two subject cohorts, Cohort 1 and Cohort 2, subjects were treated at each dose level for duration of 5 days with exception of the last dose level which included 7 days of treatment.
The protocol was amended to provide for an additional cohort, Cohort 3, in order to evaluate a different dose escalation regimen, as disclosed below.
Cohorts 1 and 2: Two groups of 15 subjects were enrolled and randomized to receive placebo (5 subjects per Cohort) or a starting dose of 0.05 mg Compound 1 (10 subjects per Cohort) on Day I. Once daily (q.d.) dosing continued through 5 days. If tolerated, the next dose escalation (placebo or 0.1 mg q.d. Compound 1) occurred on Day 6 and this dose was administered daily through Day 10.
Subsequent dose escalations were to occur in the same manner every 6th day for up to 3 additional dose escalations if tolerated (placebo or 0.2, 0.3, and 0.4 mg Compound 1) with the final dose maintained for a duration of 7 days. The dose could be decreased (“de-escalated”) or increased (“re-escalated”) based on assessment of safety and tolerability.
Cohort 3: One group of 25 subjects (S placebo and 20 active) were enrolled and randomized to receive a starting dose of 0.01 mg Compound 1 twice daily or placebo on Day 1. Twice daily dosing continued through 5 days. If tolerated, the next dose escalation (placebo or Compound 1 0.02 mg twice daily) occurred on Day 6 and this dose was administered daily through Day 10. Subsequent dose escalations were to occur in the same manner every 6th day for up to 4 additional dose escalations if tolerated (placebo or 0.03, 0.04. 0.05, and 0.07 mg twice daily Compound 1). The dose could be decreased (“de-escalated”) or increased (“re-escalated”) based on assessment of safety and tolerability. The doses tested in this cohort were 0.01, 0.02, 0.03, 0.04, 0.05, and 0.07 mg administered twice daily for a total daily dose of 0.02, 0.04, 0.06, 0.08, 0.1, and 0.14 mg, respectively.
Compound 1 capsules were provided as 0.01 mg (all Cohorts) and 0.1 mg (Cohorts 1 and 2 only) strengths.

[1] = Cohort 3, twice daily, 0.07 mg (N = 4)
[2] = Cohort 3, twice daily, Total (all doses) (N = 20)
[3] = Cohorts 1 and 2, once daily, 0.03 mg (N = 4)
[4] = Cohorts 1 and 2, once daily, 0.05 mg (N = 20)
[5] = Cohorts 1 and 2, once daily, 0.1 mg (N = 16)
[6] = Cohorts 1 and 2, once daily, 0.2 mg (N = 5)
[7] = Cohorts 1 and 2, once daily, 0.3 mg (N = 1)
[8] = Cohorts 1 and 2, once daily, 0.4 mg (N = 1)
[9] = Cohorts 1 and 2, once daily, Total (all doses) (N = 20)
[10] = Cohorts 1 and 2, 0.05 mg once daily

O=C(O)COC[C@H]1CC[C@H](COC(=O)N(c2ccccc2)c2ccc(Cl)cc2)CC1 [Compound 1, 2-(((1r,4r)-4-(((4-chlorophenyl)(phenyl)carbamoyloxy)methyl)cyclohexyl)methoxy)acetic acid]
Adverse Events (no. of subjects) leading to Decrease of Dose: Priapism [1]: 0 subjects | Adverse Events (no. of subjects) leading to Decrease of Dose: Vomiting [1]: 0 subjects | Adverse Events (no. of subjects) leading to Decrease of Dose: Abdominal pain [2]: 2 subjects | Adverse Events (no. of subjects) leading to Decrease of Dose: Arthralgia [2]: 2 subjects | Adverse Events (no. of subjects) leading to Decrease of Dose: Chest discomfort [2]: 1 subjects | Adverse Events (no. of subjects) leading to Decrease of Dose: Chest pain [2]: 1 subjects | Adverse Events (no. of subjects) leading to Decrease of Dose: Diarrhoea [2]: 2 subjects | Adverse Events (no. of subjects) leading to Decrease of Dose: Dizziness [2]: 3 subjects | Adverse Events (no. of subjects) leading to Decrease of Dose: Headache [2]: 10 subjects | Adverse Events (no. of subjects) leading to Decrease of Dose: Jaw pain [2]: 1 subjects | Adverse Events (no. of subjects) leading to Decrease of Dose: Myalgia [2]: 4 subjects | Adverse Events (no. of subjects) leading to Decrease of Dose: Nausea [2]: 5 subjects | Adverse Events (no. of subjects) leading to Decrease of Dose: Palpitations [2]: 1 subjects | Adverse Events (no. of subjects) leading to Decrease of Dose: Priapism [2]: 1 subjects | Adverse Events (no. of subjects) leading to Decrease of Dose: Vomiting [2]: 1 subjects | Tolerability of the starting dose (Cohort 3, 0.01 mg twice daily): all of the subjects were able to tolerate | Tolerability of the first escalation (Cohort 3, 0.02 mg twice daily): all of the subjects were able to tolerate | Subjects who completed the study at the dose (Cohort 3, 0.03 mg twice daily): Five | Subjects able to escalate to the dose level through study completion (Cohort 3, 0.04 mg twice daily): Two | Subjects able to escalate to the dose level through study completion (Cohort 3, 0.05 mg): Five | Tolerability of the dose (Cohort 3, 0.07 mg twice daily): tolerated through study completion | Subjects able to escalate to the dose (Cohort 3, 0.07 mg twice daily, highest dose level): Two | Subjects who discontinued treatment due to an adverse event (Cohort 3, Day 20): One | Subjects who received 0.03 mg as highest dose for at least 3 days (Cohorts 1 and 2): 0.03 mg-17 subjects | Subjects who received 0.1 mg as highest dose for at least 3 days (Cohorts 1 and 2): 0.1 mg-8 subjects | Subjects who received 0.2 mg as highest dose for at least 3 days (Cohorts 1 and 2): 0.2 mg-1 subjects | Subjects who received 0.30 mg as highest dose for at least 3 days (Cohorts 1 and 2): 0.30 mg-1 subject | Subjects with Final Compound 1 Total Daily Dose of 0.03 mg (Cohorts 1 and 2): 0.03 mg-3 subjects | Subjects with Final Compound 1 Total Daily Dose of 0.05 mg (Cohorts 1 and 2): 0.05 mg-9 subjects | Subjects with Final Compound 1 Total Daily Dose of 0.10 mg (Cohorts 1 and 2): 0.10 mg-7 subjects | Subjects with Final Compound 1 Total Daily Dose of 0.30 mg (Cohorts 1 and 2): 0.30 mg-1 subject | Adverse Events (no. of subjects) leading to Decrease of Dose: Chest pain [3]: 0 subjects | Adverse Events (no. of subjects) leading to Decrease of Dose: Diarrhoea [3]: 0 subjects | Adverse Events (no. of subjects) leading to Decrease of Dose: Erythema [3]: 0 subjects | Adverse Events (no. of subjects) leading to Decrease of Dose: Headache [3]: 0 subjects | Adverse Events (no. of subjects) leading to Decrease of Dose: Jaw pain [3]: 0 subjects | Adverse Events (no. of subjects) leading to Decrease of Dose: Nausea [3]: 0 subjects | Adverse Events (no. of subjects) leading to Decrease of Dose: Vomiting [3]: 0 subjects | Adverse Events (no. of subjects) leading to Decrease of Dose: Chest pain [4]: 0 subjects | Adverse Events (no. of subjects) leading to Decrease of Dose: Diarrhoea [4]: 1 subjects | Adverse Events (no. of subjects) leading to Decrease of Dose: Erythema [4]: 0 subjects | Adverse Events (no. of subjects) leading to Decrease of Dose: Headache [4]: 2 subjects | Adverse Events (no. of subjects) leading to Decrease of Dose: Jaw pain [4]: 0 subjects | Adverse Events (no. of subjects) leading to Decrease of Dose: Nausea [4]: 1 subjects | Adverse Events (no. of subjects) leading to Decrease of Dose: Vomiting [4]: 4 subjects | Adverse Events (no. of subjects) leading to Decrease of Dose: Chest pain [5]: 1 subjects | Adverse Events (no. of subjects) leading to Decrease of Dose: Diarrhoea [5]: 0 subjects | Adverse Events (no. of subjects) leading to Decrease of Dose: Erythema [5]: 0 subjects | Adverse Events (no. of subjects) leading to Decrease of Dose: Headache [5]: 5 subjects | Adverse Events (no. of subjects) leading to Decrease of Dose: Jaw pain [5]: 1 subjects | Adverse Events (no. of subjects) leading to Decrease of Dose: Nausea [5]: 1 subjects | Adverse Events (no. of subjects) leading to Decrease of Dose: Vomiting [5]: 2 subjects | Adverse Events (no. of subjects) leading to Decrease of Dose: Chest pain [6]: 0 subjects | Adverse Events (no. of subjects) leading to Decrease of Dose: Diarrhoea [6]: 0 subjects | Adverse Events (no. of subjects) leading to Decrease of Dose: Erythema [6]: 0 subjects | Adverse Events (no. of subjects) leading to Decrease of Dose: Headache [6]: 1 subjects | Adverse Events (no. of subjects) leading to Decrease of Dose: Jaw pain [6]: 0 subjects | Adverse Events (no. of subjects) leading to Decrease of Dose: Nausea [6]: 2 subjects | Adverse Events (no. of subjects) leading to Decrease of Dose: Vomiting [6]: 2 subjects | Adverse Events (no. of subjects) leading to Decrease of Dose: Chest pain [7]: 0 subjects | Adverse Events (no. of subjects) leading to Decrease of Dose: Diarrhoea [7]: 0 subjects | Adverse Events (no. of subjects) leading to Decrease of Dose: Erythema [7]: 0 subjects | Adverse Events (no. of subjects) leading to Decrease of Dose: Headache [7]: 0 subjects | Adverse Events (no. of subjects) leading to Decrease of Dose: Jaw pain [7]: 0 subjects | Adverse Events (no. of subjects) leading to Decrease of Dose: Nausea [7]: 0 subjects | Adverse Events (no. of subjects) leading to Decrease of Dose: Vomiting [7]: 0 subjects | Adverse Events (no. of subjects) leading to Decrease of Dose: Chest pain [8]: 0 subjects | Adverse Events (no. of subjects) leading to Decrease of Dose: Diarrhoea [8]: 0 subjects | Adverse Events (no. of subjects) leading to Decrease of Dose: Erythema [8]: 1 subjects | Adverse Events (no. of subjects) leading to Decrease of Dose: Headache [8]: 0 subjects | Adverse Events (no. of subjects) leading to Decrease of Dose: Jaw pain [8]: 0 subjects | Adverse Events (no. of subjects) leading to Decrease of Dose: Nausea [8]: 0 subjects | Adverse Events (no. of subjects) leading to Decrease of Dose: Vomiting [8]: 0 subjects | Adverse Events (no. of subjects) leading to Decrease of Dose: Chest pain [9]: 1 subjects | Adverse Events (no. of subjects) leading to Decrease of Dose: Diarrhoea [9]: 1 subjects | Adverse Events (no. of subjects) leading to Decrease of Dose: Erythema [9]: 1 subjects | Adverse Events (no. of subjects) leading to Decrease of Dose: Headache [9]: 8 subjects | Adverse Events (no. of subjects) leading to Decrease of Dose: Jaw pain [9]: 1 subjects | Adverse Events (no. of subjects) leading to Decrease of Dose: Nausea [9]: 4 subjects | Adverse Events (no. of subjects) leading to Decrease of Dose: Vomiting [9]: 8 subjects | Subjects unable to tolerate the starting dose (number) [10]: three | Subjects unable to tolerate the starting dose (percent) [10]: 15% | Subjects who tolerated the dose (Cohorts 1 and 2, 0.2 mg once daily): One | Tolerability of the dose (Cohorts 1 and 2, 0.4 mg once daily, highest dose administered (one subject)): not tolerated | Subjects who withdrew (Cohorts 1 and 2, Day 1): One | AEs considered moderate in intensity (within the Compound 1 group): 95% | AEs deemed by the investigator to be probably related to study drug (within the Compound 1 group): 90%
